Source: US7785875B2, “Polynucleotide encoding HCV epitopes which can bind to various HLA supertypes, immunogenic composition comprising same and method of inducing an HCV-specific immune response using same” (priority 2004, dated 2010)

Tested on: PBMCs derived from HCV-infected patients
Experiment: Ex vivo IFN-γ ELISPOT assay
Format: cell-based, human
Details: for responsiveness of positive reaction: positive = 30 or more SFCs per 2×10^5 PBMCs; for number of HLA types the epitope was positive to: of 9 HLA types found in the patients (A2, A24, A26, A3, B7, B15, B27, B44, B51)

## C1: HCV epitope peptide of 9 amino acids, NS3, region 1338 (TAGARLVVL) [Peptide C1]
HLA-A2 type patients
  responsiveness of positive reaction: 11.5%
HLA-A3 type patients
  responsiveness of positive reaction: 10.0%
HLA-A24 type patients
  responsiveness of positive reaction: 4.18%
HLA-A26 type patients
  responsiveness of positive reaction: 0%
HLA-A molecule A2
  Number of patients showing positive response/Number of patients having specific MHC type: 3/26
HLA-A molecule A3
  Number of patients showing positive response/Number of patients having specific MHC type: 3/30
HLA-A molecule A24
  Number of patients showing positive response/Number of patients having specific MHC type: 1/24
HLA-A molecule A26
  Number of patients showing positive response/Number of patients having specific MHC type: 0/1
HLA-B7 type patients
  responsiveness of positive reaction: 11.7%
HLA-B15 type patients
  responsiveness of positive reaction: 0%
HLA-B27 type patients
  responsiveness of positive reaction: 0%
HLA-B44 type patients
  responsiveness of positive reaction: 22.2%
HLA-B51 type patients
  responsiveness of positive reaction: 20.0%
HLA-B molecule B7
  Number of patients showing positive response/Number of patients having specific MHC type: 2/17
HLA-B molecule B15
  Number of patients showing positive response/Number of patients having specific MHC type: 0/9
HLA-B molecule B27
  Number of patients showing positive response/Number of patients having specific MHC type: 0/4
HLA-B molecule B44
  Number of patients showing positive response/Number of patients having specific MHC type: 2/9
HLA-B molecule B51
  Number of patients showing positive response/Number of patients having specific MHC type: 2/10
  number of HLA types the epitope was positive to: 6

## L7: HCV epitope peptide of 9 amino acids, NS2, region 883 (ELIFDITKL) [Peptide L7]
HLA-A2 type patients
  responsiveness of positive reaction: 19.2%
HLA-A3 type patients
  responsiveness of positive reaction: 10.0%
HLA-A24 type patients
  responsiveness of positive reaction: 12.5%
HLA-A26 type patients
  responsiveness of positive reaction: 0%
HLA-A molecule A2
  Number of patients showing positive response/Number of patients having specific MHC type: 5/26
HLA-A molecule A3
  Number of patients showing positive response/Number of patients having specific MHC type: 3/30
HLA-A molecule A24
  Number of patients showing positive response/Number of patients having specific MHC type: 3/24
HLA-A molecule A26
  Number of patients showing positive response/Number of patients having specific MHC type: 0/1
HLA-B7 type patients
  responsiveness of positive reaction: 17.6%
HLA-B15 type patients
  responsiveness of positive reaction: 22.2%
HLA-B27 type patients
  responsiveness of positive reaction: 25.0%
HLA-B44 type patients
  responsiveness of positive reaction: 11.1%
HLA-B51 type patients
  responsiveness of positive reaction: 20.0%
HLA-B molecule B7
  Number of patients showing positive response/Number of patients having specific MHC type: 3/17
HLA-B molecule B15
  Number of patients showing positive response/Number of patients having specific MHC type: 2/9
HLA-B molecule B27
  Number of patients showing positive response/Number of patients having specific MHC type: 1/4
HLA-B molecule B44
  Number of patients showing positive response/Number of patients having specific MHC type: 1/9
HLA-B molecule B51
  Number of patients showing positive response/Number of patients having specific MHC type: 2/10
  number of HLA types the epitope was positive to: 8

## L6: HCV epitope peptide of 9 amino acids, E2, region 628 (KVRMYVGGV) [Peptide L6]
HLA-A2 type patients
  responsiveness of positive reaction: 15.3%
HLA-A3 type patients
  responsiveness of positive reaction: 10.0%
HLA-A24 type patients
  responsiveness of positive reaction: 8.3%
HLA-A26 type patients
  responsiveness of positive reaction: 0%
HLA-A molecule A2
  Number of patients showing positive response/Number of patients having specific MHC type: 4/26
HLA-A molecule A3
  Number of patients showing positive response/Number of patients having specific MHC type: 3/30
HLA-A molecule A24
  Number of patients showing positive response/Number of patients having specific MHC type: 2/24
HLA-A molecule A26
  Number of patients showing positive response/Number of patients having specific MHC type: 0/1
HLA-B7 type patients
  responsiveness of positive reaction: 11.7%
HLA-B15 type patients
  responsiveness of positive reaction: 11.1%
HLA-B27 type patients
  responsiveness of positive reaction: 0%
HLA-B44 type patients
  responsiveness of positive reaction: 11.1%
HLA-B51 type patients
  responsiveness of positive reaction: 30.0%
HLA-B molecule B7
  Number of patients showing positive response/Number of patients having specific MHC type: 2/17
HLA-B molecule B15
  Number of patients showing positive response/Number of patients having specific MHC type: 1/9
HLA-B molecule B27
  Number of patients showing positive response/Number of patients having specific MHC type: 0/4
HLA-B molecule B44
  Number of patients showing positive response/Number of patients having specific MHC type: 1/9
HLA-B molecule B51
  Number of patients showing positive response/Number of patients having specific MHC type: 3/10
  number of HLA types the epitope was positive to: 7

## L1: HCV epitope peptide of 9 amino acids, Core, region 118 (NLGKVIDTL) [Peptide L1]
HLA-A2 type patients
  responsiveness of positive reaction: 11.5%
HLA-A3 type patients
  responsiveness of positive reaction: 10.0%
HLA-A24 type patients
  responsiveness of positive reaction: 8.3%
HLA-A26 type patients
  responsiveness of positive reaction: 0%
HLA-A molecule A2
  Number of patients showing positive response/Number of patients having specific MHC type: 3/26
HLA-A molecule A3
  Number of patients showing positive response/Number of patients having specific MHC type: 3/30
HLA-A molecule A24
  Number of patients showing positive response/Number of patients having specific MHC type: 2/24
HLA-A molecule A26
  Number of patients showing positive response/Number of patients having specific MHC type: 0/1
HLA-B7 type patients
  responsiveness of positive reaction: 11.7%
HLA-B15 type patients
  responsiveness of positive reaction: 0%
HLA-B27 type patients
  responsiveness of positive reaction: 0%
HLA-B44 type patients
  responsiveness of positive reaction: 33.3%
HLA-B51 type patients
  responsiveness of positive reaction: 10.0%
HLA-B molecule B7
  Number of patients showing positive response/Number of patients having specific MHC type: 2/17
HLA-B molecule B15
  Number of patients showing positive response/Number of patients having specific MHC type: 0/9
HLA-B molecule B27
  Number of patients showing positive response/Number of patients having specific MHC type: 0/4
HLA-B molecule B44
  Number of patients showing positive response/Number of patients having specific MHC type: 3/9
HLA-B molecule B51
  Number of patients showing positive response/Number of patients having specific MHC type: 1/10
  number of HLA types the epitope was positive to: 6

## C4: HCV epitope peptide of 9 amino acids, NS2, region 894 (AILGPLMVF) [Peptide C4]
HLA-A2 type patients
  responsiveness of positive reaction: 26.3%
HLA-A3 type patients
  responsiveness of positive reaction: 23.5%
HLA-A24 type patients
  responsiveness of positive reaction: 29.1%
HLA-A26 type patients
  responsiveness of positive reaction: 0%
HLA-A molecule A2
  Number of patients showing positive response/Number of patients having specific MHC type: 7/26
HLA-A molecule A3
  Number of patients showing positive response/Number of patients having specific MHC type: 7/30
HLA-A molecule A24
  Number of patients showing positive response/Number of patients having specific MHC type: 7/24
HLA-A molecule A26
  Number of patients showing positive response/Number of patients having specific MHC type: 0/1
HLA-B7 type patients
  responsiveness of positive reaction: 29.1%
HLA-B15 type patients
  responsiveness of positive reaction: 44.4%
HLA-B27 type patients
  responsiveness of positive reaction: 0%
HLA-B44 type patients
  responsiveness of positive reaction: 22.2%
HLA-B51 type patients
  responsiveness of positive reaction: 50.0%
HLA-B molecule B7
  Number of patients showing positive response/Number of patients having specific MHC type: 5/17
HLA-B molecule B15
  Number of patients showing positive response/Number of patients having specific MHC type: 4/9
HLA-B molecule B27
  Number of patients showing positive response/Number of patients having specific MHC type: 0/4
HLA-B molecule B44
  Number of patients showing positive response/Number of patients having specific MHC type: 2/9
HLA-B molecule B51
  Number of patients showing positive response/Number of patients having specific MHC type: 5/10
  number of HLA types the epitope was positive to: 7

## L2: HCV epitope peptide of 9 amino acids, E2, region 632 (YVGGVEHRL) [Peptide L2]
HLA-A2 type patients
  responsiveness of positive reaction: 15.3%
HLA-A3 type patients
  responsiveness of positive reaction: 13.3%
HLA-A24 type patients
  responsiveness of positive reaction: 12.5%
HLA-A26 type patients
  responsiveness of positive reaction: 0%
HLA-A molecule A2
  Number of patients showing positive response/Number of patients having specific MHC type: 4/26
HLA-A molecule A3
  Number of patients showing positive response/Number of patients having specific MHC type: 4/30
HLA-A molecule A24
  Number of patients showing positive response/Number of patients having specific MHC type: 3/24
HLA-A molecule A26
  Number of patients showing positive response/Number of patients having specific MHC type: 0/1
HLA-B7 type patients
  responsiveness of positive reaction: 5.8%
HLA-B15 type patients
  responsiveness of positive reaction: 22.2%
HLA-B27 type patients
  responsiveness of positive reaction: 25.0%
HLA-B44 type patients
  responsiveness of positive reaction: 11.1%
HLA-B51 type patients
  responsiveness of positive reaction: 20.0%
HLA-B molecule B7
  Number of patients showing positive response/Number of patients having specific MHC type: 1/17
HLA-B molecule B15
  Number of patients showing positive response/Number of patients having specific MHC type: 2/9
HLA-B molecule B27
  Number of patients showing positive response/Number of patients having specific MHC type: 1/4
HLA-B molecule B44
  Number of patients showing positive response/Number of patients having specific MHC type: 1/9
HLA-B molecule B51
  Number of patients showing positive response/Number of patients having specific MHC type: 2/10
  number of HLA types the epitope was positive to: 8
